Test results: patent US20070098735A1, “Methods for the Elimination of Pathogens and Other Particulate Agents” (priority 2005, published 2007)

Experiments:
[1] = tested on: macrophage phagocytosis in wounded mice; assay: Inhibition of phagocytosis in vivo by gadolinium chloride, wound closure; conditions: GdCl3 10 mg/kg IV day -1 and day 0; HSP70 30 μg/dose SC day 0
Experimental: Inhibition of Phagocytosis In vivo. Intravenous injection of gadolinium chloride inhibits phagocytosis of macrophages without affecting their viability or affecting other cell types. Mice were treated (on day minus-1 and day 0) with GdCl3 (10 mg/kg body weight in 200 μl of distilled water) administered intravenously via the retro-orbital venous plexus. Subsequently the mice were wounded as previously described (Day 0) and treated with PBS and HSP70 (30 μg/dose) given subcutaneously on day 0.
Treatment groups shown are (i) HSP70 alone; (ii) HSP70+GdCl3; (iii) PBS alone; and (iv) PBS+GdCl3. *P values were obtained using the Student's t-test by comparing the percent inhibition in wound closure of gadolinium chloride plus treatment to percent wound closure of the treatment alone.

[2] = tested on: Murine macrophage lines (RAW264.7, J774.A1 or RAW264NO-); assay: Phagocytosis assay in vitro (uptake of Alexa Fluor 488-labeled particles); type: cell-based; design: effect of LR-disrupting drugs on HSP70-mediated phagocytosis: dose or concentration left out as unconfirmed
Experimental: Phagocytosis Assay in vitro. RAW 264.7, RAW264.7 (NO-) and J774A.1 cells were cultured in DMEM or RPMI (RAW NO-) with 10% FCS, harvested, and washed. 3×10^5 cells/well were incubated in serum-free Earle's minimal essential medium (EMEM) in a 24-well plate for 1 hour at 37° C. Alexa Fluor® 488-labeled particles (inert polystyrene microspheres; or yeast, Saccharomyces cerevisiae or Gram-negative bacteria, Escherichia coli, 40 particles/macrophage) were added and co-incubated in a dark environment for 60 minutes in serum free EMEM with or without HSPs, LPS, or control proteins. At the end of 60 minutes incubation, the plate was covered in a dark container on ice. Specific measures were taken to exclude the fluorescence that resulted from particles that were outside of the cell or sticking to the surface of the cell. […] Specifically, trypan blue (0.8 mg/ml) was added for 60 seconds and plates were analyzed immediately using FluorImager SI (Molecular Dynamics/Amersham). Since the emission of Alexa Fluor® 488, about 519 nm at an excitation of about 490 nm, falls within the absorbance range of trypan blue (475-675 nm), the fluorescence of the sample only represents the intracellular fluorescence. External or surface-bound fluorescence is quenched. Using Student's t test, the results were analyzed and P-values were calculated.
HSP-mediated phagocytosis was quantified by measuring the internalized fluorescence measured by FluorImager SI and Relative Mean Fluorescence Intensity (RMFI) was compared between the treatment groups (as indicated). All the treatment groups were compared to medium alone using the Student's t test and significance denoted by P<0.01. The error bar represents one standard deviation. The results shown are a cumulative analysis of 3 experiments, 3 wells/group.

[3] = tested on: macrophages (TNF-α release); assay: TNF-α release by LPS-treated macrophages in presence or absence of serum; type: cell-based; conditions: serum-free conditions
Experimental: HSP70 used in all assays was purified using LPS-free sterile packaged plastic ware, baked glass ware (420° F. for 4 hours) and using endotoxin-free culture grade reagents to minimize inadvertent LPS contamination. Further, LPS levels and activity in the purified HSPs were quantified and confirmed to be <1 EU/mg of protein. Next, HSPs and LPS were compared for their influence on phagocytosis in presence or absence of serum. These conditions were specifically chosen since LPS-binding protein (LBP), an essential mediator for LPS function, is not present in serum-free conditions. As a control, macrophages were treated with LPS in presence or absence of serum and their ability to elicit TNF-α release was compared (FIG. 3A). […] Briefly, macrophages were treated with HSP70 (100 μg/ml) or LPS (different doses ranging 25 ng-1 μg/ml) in serum-free conditions for 1 hour and a phagocytosis assay was performed. […] The error bar is one standard deviation. The results shown are a cumulative analysis of 3 experiments, 3 wells/group.

[4] = tested on: full thickness surgical wounds on the dorsum of BALB/cJ mice; assay: Closure of full thickness surgical wounds, percent wound closure; type: in vivo
Experimental: Surgery and Treatment. Mice were anesthetized using Ketamine (2.0 mg/mouse) and Xylazine (0.1 mg/mouse) were administered intraperitoneally (IP) and the dorsal skin was shaved. After sterile prepping of the area, a full thickness circular wound, 8 mm diameter, was made on the dorsal skin using a disposable biopsy punch (Miltex Inc, York, Pa.) on the midline of the dorsum approximately at the iliac crest. The mice were then randomly assigned into the treatment groups. Initial wound measurements were performed while the mice were still anesthetized. Mice were then treated on days 0, 2, 4, and 6 unless otherwise specified. All agents used as treatment were diluted in 0.5 ml of PBS and injected using a 25-gauge needle in the subcutaneous space in the nape of the neck. The surgical procedures, post-operative monitoring, and safety concerns were approved by the Institutional Animal Care and Usage Committee.
Measurements and Analysis. Wound healing of open wounds is a complex process with many parameters to consider. […] The wound surface area was determined by measuring the craniocaudal and lateromedial distances using vernier calipers in perpendicular axis on days 0, 2, 4, 6, 9, and 11 postoperatively unless noted. Changes in wound area were expressed as percent wound closure. Wound closure data was plotted as average percent wound closure ±SEM unless otherwise noted. All calculations and data analysis were performed using Microsoft Excel and Sigma Plot. Sigma Plot was used to perform Student's t-tests for reported P values.
Full thickness surgical wounds were created on the dorsum of BALB/cJ mice as described in Methods. Wounds were made on day 0. Subsequently, the wounds were treated with exogenous injections of HSP70, HSP90, gp96 (30 μg/dose) or buffer administered subcutaneously (SC) on days 0, 2, 4 and 6 following surgery (FIG. 6A). The wounds were measured on days 0, 2, 4, 6, 9, 11 unless otherwise noted. Wounds were measured serially, percent wound closure was calculated and plotted against time in order to quantitate the rate of healing by secondary intention. […] Data is plotted as average percent wound closure ±SEM on days indicated. Two mice from each treatment group (PBS (n=12), HSP70 (n=11), HSP90 (n=12), and gp96 (n=11)) were sacrificed for histology on days 2, 4, and 6 post-surgery (data not shown). The P values obtain using the Student's t-test.
Results are of average percent wound closure ±SEM on day 2 post surgery. The *P values were obtained using the Student's t-test by comparing HSP treatment to all of the non-HSP control treatments. The least significant P value was reported. […] Doses higher than 50 μg/dose were not tested.

[5] = tested on: full thickness wounds of naïve mice; assay: Adoptive transfer of pre-treated RAW 264.7 macrophages into wounded mice, wound closure; type: in vivo; conditions: 400,000 macrophages pre-treated at 30 μg/dose; day 2 post surgery
Experimental: Macrophage Cell Culture, Pre-treatment, and Adoptive Transfer. RAW 264.7 macrophages (ATCC) were grown as described by ATCC. Cells were harvested by gently scraping them from the cell culture flasks, centrifuged and washed once in cultured grade PBS. […] They were then washed 3 times with PBS, and were re-suspended to achieve a concentration of 400,000, 40,000, or 4,000 cells per 0.5 ml PBS. Adoptive transfer of these cells was performed by subcutaneous injections in the nape of the neck using a 25-gauge needle in mice that were wounded as previously described. Adoptive transfers were given on days 0, 2 and 4 post-operatively.
Macrophages were treated in vitro with either HSPs or non-HSP controls and transferred into naïve wounded mice (as described in Materials and Methods) to test if HSPs could in part mediate some of their activity through macrophages. […] Data is plotted as average percent wound closure ±SEM on day 2. *P values were obtained using the Student's t-test by comparing HSP treatment to all of the non-HSP control treatments. The least significant P value was reported.
Titratability of adoptive transfer was examined by transferring 4,000, 40,000 or 400,000 macrophages pre-treated as described in Materials and Methods.

RAW 264.7 macrophages = assay: In vitro macrophage phagocytosis of wound debris; type: cell-based, murine; conditions: RAW264.7, labeled wound debris
[6] = tested on: lipid raft (LR) microdomain of the macrophage plasma membrane; assay: Binding of exogenous HRP-labeled HSP70 to purified lipid raft fractions; design: species or system murine; conditions: MCD (30 mM); HRP-labeled HSP70 100 μg/ml; Triton X-100
Experimental: Purification of lipid rafts. Lipid rafts were purified as DRMs (detergent resistant membrane) using non-ionic detergents following sucrose gradient centrifugation. […] After incubation, cells were washed 3× with PBS and lysed with 2 ml MES (4-morpholinoethanesulfonic acid) buffered saline (MBS; 150 mM NaCl, 20 mM MES, pH 6.5, […] and 5 mM iodoacetamide) containing 0.5% Triton X-100 or 1% for 30 minutes on ice or 7 minutes at 37° C. respectively. The cells were mixed with an equal volume of 90% sucrose in MEB buffer (150 mM NaCl, 20 mM MES [pH 6.5]) and placed at the bottom of the centrifuge tube. […] Fractions of 1 ml each were collected from the bottom of tube and each fraction was analyzed by SDS-PAGE and immunoblotting.
Briefly, RAW264.7 macrophages were treated with exogenous HRP-labeled HSP70 (100 μg/ml) or were left untreated for 60 minutes and washed with PBS three times to remove free HSPs. […] These fractions obtained (light: LR and heavy: non-LR) were then analyzed using immunoblotting to detect HRP activity of HSP70-HRP complexes or tested for the presence of an LR-associated ganglioside GM1 by using HRP-cholera toxin B. Similarly, these fractions were tested for the amount of cholesterol using (Biovision Research Products, CA). […]

macrophages = assay: Trypan blue exclusion viability of treated macrophages; conditions: MCD-treated cells

[Cl][Gd]([Cl])[Cl] [GdCl3, gadolinium chloride]
inhibition of the HSP70-mediated effects on wound healing [1]: up to 67%

lipopolysaccharide [LPS, reference compound]
ability to enhance phagocytosis ([2]; serum-free conditions, 1 hour, HSP70 100 μg/ml, LPS 25 ng-1 μg/ml, heating 100° C. for 20 minutes): unable to enhance phagocytosis in serum-free conditions | stimulation of macrophages (TNF-α release) [3]: ineffective at stimulating macrophages | wound healing on day 2 ([4]; 30 μg/dose, day 2 post surgery): 25% | wound closure of non-HSP controls compared to PBS control ([4]; day 2 post surgery): not significantly different to the PBS control | benefit to the wounds ([4]; same doses as HSPs and significantly smaller quantities): not beneficial to the wounds at any of the doses tested | wound healing on day 2 after adoptive transfer of pre-treated macrophages [5]: 21% | mean fluorescence intensity compared to medium control (RAW 264.7 macrophages): not significantly different to the medium control

methyl-β-cyclodextrin [MCD]
dose dependence of inhibitory effect on macrophage response to HSP70 ([2]; MCD 0-30 mM, HSP70 100 μg/ml): titratable | effect of LR-disrupting drugs on HSP70-mediated phagocytosis ([2]; nystatin or MCD, labeled yeast 40 particles/macrophage): HSP70-mediated phagocytosis was inhibited | effect on binding of exogenous HSP70 to lipid rafts [6]: significant reduction in the binding of exogenously administered HSP70 | viability (trypan blue exclusion) (macrophages): 95%
